In US20250011318A1 (ARCUS BIOSCIENCES, INC., priority 2023, published 2025):

Legend:
Cbl-b = biological target: T1, Cbl-b (Homo sapiens, UniProt Q13191); assay: Cbl-b probe displacement HTRF binding assay; conditions: 0.4 nM biotinylated Cbl-b, 150 nM BODIPY probe
T1 construct: biotin (biotinylated)
Procedure: The affinity with which compounds of the present disclosure bind to Cbl-b was assessed using probe displacement homologous time resolved fluorescence (HTRF) assays. The assays used a BODIPY™ conjugated probe (Example 54 from WO 2020264398) and biotinylated Cbl-b. The assays were performed in assay buffer consisting of 20 mM Hepes, 150 mM NaCl, 0.01% Triton X-100, 0.5 mM TCEP, 0.01% BSA. On the day of the assay, a 20 point, 1:2 master serial dilution of each compound was prepared in DMSO to span a final concentration range of 10 μM to 0 nM. Two hundred nanoliters of diluted compound was added to each well of a 384-well plate. Fifteen microliters of biotinylated—Cbl-b resuspended in assay buffer were added to each well and the plate incubated for 60 minutes at room temperature prior to addition of 5 μL of BODIPY™ probe in assay buffer. Final assay conditions included 0.4 nM of Cbl-b and 150 nM of BODIPY™ probe. After a further 15 minutes of incubation at room temperature, 5 μl of Streptavidin-Terbium cryptate reagent at 5-fold final concentration was added to each well of the 384-well plate. Binding of a probe to Cbl-b results in an increase of HTRF signal. HTRF signal was measured by Envision plate reader, while competition of a compound of the present disclosure with probe results in a decrease of signal. Percentage maximum activity in each test well was calculated based on DMSO (maximum activity, 0% displacement) and no protein control wells (baseline activity, 100% displacement). Binding affinity was determined from a dose response curve fitted using a standard four parameter fit equation. See Table 3 for data for compounds (Cbl-b Binding (IC50)).

Jurkat cells = assay: IL-2 secretion assay in CD3/CD28-activated Jurkat cells (AlphaLISA); assay type: cell-based, human; conditions: Homo sapiens, CD3/CD28 T Cell Activator, 24 h, IL-2 AlphaLISA
Procedure: Certain compounds were also evaluated in an IL-2 secretion assay. On the day of the assay, a 16 point, 1:2 master serial dilution of each compound was prepared in Opti-MEM to span a final concentration range of 10 μM to 300 pM. Assays were setup in CORNING® tissue culture-treated 384-well microplates containing 60 nL of each dilution. Jurkat cells grown in RPMI-1640 supplemented with 10% FBS, 1% Glutamax, and 1% Pen/Strep were collected, resuspended in Opti-MEM. 50,000 cells/well and added to the compound plates. After a short spin (1200 rpm for 1 min), the plates were incubated at 37° C. for 1 hour. The cells were activated by adding 15 μL of IMUNOCULT™ Human CD3/CD28 T Cell Activator (STEMCELL Technologies) diluted in Opti-MEM. After 24 h of incubation at 37° C., aliquots of culture supernatants were transferred to OptiPlate-384 (PerkinElmer) microplates. The level of IL-2 secretion in the supernatants was then determined using the IL-2 (human) AlphaLISA Detection Kit (PerkinElmer) according to the manufacturer's recommendations. The AlphaLISA signal was measured using an EnVision plate reader (PerkinElmer). EC50 values were determined by fitting the data to a standard 4-parameter logistic equation. See Table 3 for data for select compounds (IL-2 Secretion (EC50)).

T1 sequence (Q13191 whole entry, species assumed): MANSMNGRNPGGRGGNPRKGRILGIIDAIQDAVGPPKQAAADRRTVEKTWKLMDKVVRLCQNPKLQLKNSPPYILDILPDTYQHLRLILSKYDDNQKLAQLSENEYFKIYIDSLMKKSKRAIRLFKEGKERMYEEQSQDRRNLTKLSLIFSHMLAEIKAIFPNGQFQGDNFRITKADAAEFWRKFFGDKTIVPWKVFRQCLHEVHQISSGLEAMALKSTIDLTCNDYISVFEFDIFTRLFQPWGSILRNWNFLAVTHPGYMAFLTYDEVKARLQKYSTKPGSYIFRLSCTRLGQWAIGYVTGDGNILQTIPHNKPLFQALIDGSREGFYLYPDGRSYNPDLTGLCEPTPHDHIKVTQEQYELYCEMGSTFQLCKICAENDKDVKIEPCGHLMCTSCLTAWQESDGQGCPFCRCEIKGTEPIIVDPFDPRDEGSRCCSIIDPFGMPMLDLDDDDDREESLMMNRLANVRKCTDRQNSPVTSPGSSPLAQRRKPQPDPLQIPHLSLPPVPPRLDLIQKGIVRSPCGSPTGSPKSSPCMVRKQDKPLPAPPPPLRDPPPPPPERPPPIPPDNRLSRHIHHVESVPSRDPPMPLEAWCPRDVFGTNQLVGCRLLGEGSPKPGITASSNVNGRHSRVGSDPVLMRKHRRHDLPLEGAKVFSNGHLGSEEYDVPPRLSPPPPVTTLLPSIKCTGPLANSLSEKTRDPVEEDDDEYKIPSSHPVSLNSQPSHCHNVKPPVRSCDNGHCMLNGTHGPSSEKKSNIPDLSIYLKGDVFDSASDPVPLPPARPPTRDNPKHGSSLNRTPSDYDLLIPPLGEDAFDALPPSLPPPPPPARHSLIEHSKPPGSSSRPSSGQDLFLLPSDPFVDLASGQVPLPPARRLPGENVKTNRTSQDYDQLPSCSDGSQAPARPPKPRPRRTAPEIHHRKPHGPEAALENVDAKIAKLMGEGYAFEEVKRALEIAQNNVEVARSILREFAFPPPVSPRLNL

Structure (SMILES) | IC50 (Cbl-b) | EC50 (Jurkat cells)
Cn1cnnc1-c1cc(C#N)ccc1-c1cc(C2CC2)nc(-n2cc(C3CC3)c3cc[nH]c3c2=O)c1 [Example 4] | 1000 to 5000 nM | > 5000 nM
Cn1cnnc1-c1cc(F)ccc1-c1cc(C2CC2)nc(-n2cc(C#N)c3c(C#N)n[nH]c3c2=O)c1 [Example 27, 6-{6-cyclopropyl-4-[4-fluoro-2-(4-methyl-4H-1,2,4-triazol-3-yl)phenyl]-2-pyridyl}-7-oxo-1,6-dihydro-1,2,6-triaza-3,4-indenedicarbonitrile] | 100 to 1000 nM | > 5000 nM
COCCN(C)Cc1cc2ncn(-c3cc(-c4ccc(F)cc4-c4nc(C#N)cn4C)cc(C4CC4)n3)c(=O)c2[nH]1 [Example 108, 2-{2-[6-cyclopropyl-2-(2-{[(2-methoxyethyl)-N-methylamino]methyl}-7-oxo-1,6-dihydro-1,4,6-triaza-6-indenyl)-4-pyridyl]-5-fluorophenyl}-1-methyl-4-imidazolecarbonitrile] | < 100 nM | < 100 nM
Cc1c[nH]nc1-c1cc(C#N)ccc1-c1cc(C2CC2)nc(-n2cc(C3CC3)c3cc(CNCC4(O)CCC4)[nH]c3c2=O)c1 [Example 20, 4-[2-cyclopropyl-6-[4-cyclopropyl-2-[[(1-hydroxycyclobutyl)methylamino]-methyl]-7-oxo-1H-pyrrolo[2,3-c]pyridin-6-yl]pyridin-4-yl]-3-(4-methyl-1H-pyrazol-3-yl)benzonitrile] | < 100 nM | 100 to 1000 nM
C[C@@H]1CN(Cc2cc3c(C#N)cn(-c4cc(-c5ccc(F)cc5-c5nncn5C)cc(C5CC5)n4)c(=O)c3[nH]2)CCO1 [Example 85, 6-[6-cyclopropyl-4-[4-fluoro-2-(4-methyl-1,2,4-triazol-3-yl)phenyl]pyridin-2-yl]-2-[[(2R)-2-methylmorpholin-4-yl]methyl]-7-oxo-1H-pyrrolo[2,3-c]pyridine-4-carbonitrile] | < 100 nM | < 100 nM
C[C@H]1CCCN(Cc2cc3c(C4CC4)cn(-c4cc(-c5ccc(C#N)cc5-c5nncn5C)cc(Cl)n4)c(=O)c3[nH]2)C1 [Example 1, 4-[2-(2-{[(S)-3-methyl-1-piperidyl]methyl}-4-cyclopropyl-7-oxo-1,6-dihydro-1,6-diaza-6-indenyl)-6-chloro-4-pyridyl]-3-(4-methyl-4H-1,2,4-triazol-3-yl)benzonitrile] | < 100 nM | < 100 nM
Cc1cc2ncn(-c3cc(-c4ccc(F)cc4-c4nncn4C)cc(C4CC4)n3)c(=O)c2[nH]1 [Example 124, 3-[6-cyclopropyl-4-[4-fluoro-2-(4-methyl-1,2,4-triazol-3-yl)phenyl]-pyridin-2-yl]-6-methyl-5H-pyrrolo[3,2-d]pyrimidin-4-one] | < 100 nM | 100 to 1000 nM
C[C@H]1CCCN(Cc2cc3c(C4CC4)cn(-c4cc(-c5c(-c6nncn6C)cnn5C)cc(Cl)n4)c(=O)c3[nH]2)C1 [Example 25, 2-{[(S)-3-Methyl-1-piperidyl]methyl}-6-{6-chloro-4-[1-methyl-4-(4-methyl-4H-1,2,4-triazol-3-yl)-5-pyrazolyl]-2-pyridyl}-4-cyclopropyl-1,6-dihydro-1,6-diaza-7-indenone] | < 100 nM | < 100 nM
Cn1ccnc1-c1cc(F)ccc1-c1cc(C2CC2)nc(-n2cc(C3CC3)c3cc(CNC4(C)CCC4)[nH]c3c2=O)c1 [Example 55, 4-cyclopropyl-6-{6-cyclopropyl-4-[4-fluoro-2-(1-methyl-2-imidazolyl)phenyl]-2-pyridyl}-2-[(1-methylcyclobutylamino)methyl]-1,6-dihydro-1,6-diaza-7-indenone] | < 100 nM | < 100 nM
C[C@@H]1CN(Cc2cc3c(C4CC4)cn(-c4cc(-c5c(F)cc(F)cc5-c5nccn5C)cc(C5CC5)n4)c(=O)c3[nH]2)CCO1 [Example 65, 2-{[(R)-2-methyl-4-morpholinyl]methyl}-4-cyclopropyl-6-{6-cyclopropyl-4-[4,6-difluoro-2-(1-methyl-2-imidazolyl)phenyl]-2-pyridyl}-1,6-dihydro-1,6-diaza-7-indenone] | < 100 nM | < 100 nM
Cn1cnnc1-c1cc(C#N)ccc1-c1cc(C2CC2)nc(-n2cc(C3CC3)c3cc(CNC4(C)CCC4)[nH]c3c2=O)c1 [Example 37, 4-(6-cyclopropyl-2-{4-cyclopropyl-2-[(1-methylcyclobutylamino)methyl]-7-oxo-1,6-dihydro-1,6-diaza-6-indenyl}-4-pyridyl)-3-(4-methyl-4H-1,2,4-triazol-3-yl)benzonitrile] | < 100 nM | < 100 nM

Now from value to compound:

IC50 (Cbl-b) | EC50 (Jurkat cells) | Structure (SMILES)
< 100 nM | 100 to 1000 nM | CO[C@H]1CCCN(Cc2cc3c(C4CC4)cn(-c4cc(-c5ccc(F)cc5-c5nccn5C)cc(C5CC5)n4)c(=O)c3[nH]2)C1 [Example 61, 2-{[(S)-3-methoxy-1-piperidyl]methyl}-4-cyclopropyl-6-{6-cyclopropyl-4-[4-fluoro-2-(1-methyl-2-imidazolyl)phenyl]-2-pyridyl}-1,6-dihydro-1,6-diaza-7-indenone]
< 100 nM | < 100 nM | Cn1cnnc1-c1cc(F)ccc1-c1cc(C2CC2)nc(-n2cnc3cc(CNC4(C)CCC4)[nH]c3c2=O)c1 [Example 29, 3-[6-cyclopropyl-4-[4-fluoro-2-(4-methyl-1,2,4-triazol-3-yl)phenyl]pyridin-2-yl]-6-[[(1-methylcyclobutyl)amino]methyl]-5H-pyrrolo[3,2-d]pyrimidin-4-one]
< 100 nM | < 100 nM | CC(c1cc2c(S(C)(=O)=O)cn(-c3cc(-c4ccc(C#N)cc4-c4nccn4C)cc(C4CC4)n3)c(=O)c2[nH]1)N1CCO[C@H](C)C1 (mixture of isomers) [Example 102, 4-[2-(2-{1-[(R)-2-methyl-4-morpholinyl]ethyl}-4-mesyl-7-oxo-1,6-dihydro-1,6-diaza-6-indenyl)-6-cyclopropyl-4-pyridyl]-3-(1-methyl-2-imidazolyl)benzonitrile]
< 100 nM | 100 to 1000 nM | Cn1cnnc1-c1cc(F)ccc1-c1cc(C2CC2)nc(-n2cc(C#N)c3cc(C(N)c4cccnc4)[nH]c3c2=O)c1 (stereo not drawn) [Example 94, 2-[Amino(3-pyridyl)methyl]-6-{6-cyclopropyl-4-[4-fluoro-2-(4-methyl-4H-1,2,4-triazol-3-yl)phenyl]-2-pyridyl}-7-oxo-1,6-dihydro-1,6-diaza-4-indenecarbonitrile]
< 100 nM | < 100 nM | Cn1ccnc1-c1cc(F)ccc1-c1cc(C2CC2)nc(-n2cc(C#N)c3cc(CNCCCF)[nH]c3c2=O)c1 [Example 86, 6-{6-cyclopropyl-4-[4-fluoro-2-(1-methyl-2-imidazolyl)phenyl]-2-pyridyl}-2-[(3-fluoropropylamino)methyl]-7-oxo-1,6-dihydro-1,6-diaza-4-indenecarbonitrile]
< 100 nM | 100 to 1000 nM | Cn1cnnc1-c1cc(F)ccc1-c1cc(C2CC2)nc(-n2cnc3cc(CC4CCOCC4)[nH]c3c2=O)c1 [Example 122, 3-[6-cyclopropyl-4-[4-fluoro-2-(4-methyl-1,2,4-triazol-3-yl)phenyl]pyridin-2-yl]-6-(oxan-4-ylmethyl)-5H-pyrrolo[3,2-d]pyrimidin-4-one]
< 100 nM | < 100 nM | C[C@H]1CCCN(Cc2cc3c(C4CC4)cn(-c4cc(-c5ccc(C#N)cc5-c5nncn5C)cc(C5CC5)n4)c(=O)c3[nH]2)C1 [Example 2, 4-[2-(2-{[(S)-3-methyl-1-piperidyl]methyl}-4-cyclopropyl-7-oxo-1,6-dihydro-1,6-diaza-6-indenyl)-6-cyclopropyl-4-pyridyl]-3-(4-methyl-4H-1,2,4-triazol-3-yl)benzonitrile]
